The subject of one assay is MKN-45. Briefly: Concentration required for 50% inhibition of growth in human stomach adenocarcinoma (MKN45) cell line was determined. In kind it is functional, cell-based.
For a further assay, the system named is MCF7. Briefly: Concentration required for 50% inhibition of growth in mammary gland breast adenocarcinoma (MCF-7) cell line was determined. As to conditions: Homo sapiens. In kind it is functional, cell-based.
A further assay relates to WI-38. In words: Concentration required for 50% inhibition of growth in normal human lung fibroblast (WI-38 cell line) cell line was determined. Type of assay: functional, cell-based.
The next assay relates to SW480. Briefly: Concentration required for 50% inhibition of growth in human colon adenocarcinoma (SW-480) cell line. Type of assay: functional, cell-based.
The nature of assay [1]: Concentration required for 50% inhibition of growth in human multidrug resistance uterine sarcoma (MES-SA/Dx5 ) cell line was determined. Type of assay: functional, cell-based.
The subject of another assay is NPC-TW-039. In words: Concentration required for 50% inhibition of growth in human nasopharyngeal carcinoma (TW-039) cell line was determined.
The test system of assay [2] is Detroit 551. In words: Concentration required for 50% inhibition of growth in normal human embryonic skin fibroblast (Detroit551c) cell line was determined. In kind it is functional, cell-based.
The subject of a further assay is HepG2. In words: Concentration required for 50% inhibition of growth in human liver hepatoblastoma (Hep G2) cell line was determined. In kind it is functional, cell-based.
The test system of another assay is MES-SA. In words: Concentration required for 50% inhibition of growth in human uterine sarcoma (MES-SA) cell line was determined. In kind it is functional, cell-based.
Another assay deals with A549. In words: Concentration required for 50% inhibition of growth in human lung carcinoma cell line was determined. In kind it is functional, cell-based.
Assay [3] in a line: Dose required for 50% inhibition of growth of Hep3B cells. Conditions: Homo sapiens, read-out: ID50 (the source's name). Type of assay: functional, Hep 3B2.
In assay [4] the test system is Detroit 551. In words: Concentration required for 50% inhibition of growth in normal human embryonic skin fibroblast cell line was determined. Type of assay: functional, cell-based.

As to `CC1=C(SCCCO)C(=O)c2ccccc2C1=O`, the IC50 with MKN-45 was 6.4 µM; with MCF7 it was 5.16 µM; in the assay with WI-38, above 10 µM; in the assay with SW480 it was 4.85 µM; in [1], above 10 µM; in the assay with NPC-TW-039, above 10 µM. Further, the IC50 with Detroit 551 [2] is 5.26 µM; with HepG2, 9.53 µM; in the assay with MES-SA, above 10 µM; with A549, above 10 µM.
For `CCCCC1=C(C)C(=O)c2ccccc2C1=O`, the IC50 in assay [3] was found to be 78 µM.
For the compound `CC1=C(SCCCCO)C(=O)c2ccccc2C1=O`, the IC50 is 6.78 µM with MKN-45; 5.78 µM in the assay on MCF7; above 10 µM in the assay on WI-38; 4.51 µM in the assay on SW480; above 10 µM in assay [1]; 7.57 µM in the assay with Detroit 551 [4]. Also, the IC50 in the assay with NPC-TW-039, in the assay with HepG2, in the assay on MES-SA and in the assay on A549 was above 10 µM in each case.
Consider `CC1=C(SCCCCCCO)C(=O)c2ccccc2C1=O`, for which the IC50 is above 10 µM in the assay with MKN-45; 9.28 µM in the assay on MCF7; above 10 µM in the assay with WI-38; above 10 µM with SW480; above 10 µM in assay [1]; above 10 µM in the assay with Detroit 551 [4]. Moreover, the IC50 with NPC-TW-039, with HepG2, with MES-SA and in the assay on A549 was above 10 µM throughout.
`CCCCCCCCSC1=C(C)C(=O)c2ccccc2C1=O`: the IC50 in assay [3] worked out at 100 µM.
As for `CC1=C(SCCO)C(=O)c2ccccc2C1=O`, the IC50 in the assay on MKN-45 was 5.16 µM; in the assay on MCF7, 5.19 µM; in the assay with WI-38, 7.37 µM; with SW480, 5.14 µM; in assay [1], above 10 µM; in the assay with NPC-TW-039, above 10 µM. The IC50 is 8.17 µM with Detroit 551 [2]; 5.6 µM in assay [3]; 8.4 µM in the assay with HepG2; above 10 µM in the assay on MES-SA; above 10 µM with A549.
With `CCCCOC1=C(C)C(=O)c2ccccc2C1=O`, the IC50 in assay [3] turned out to be 55 µM.
For `CCCCCCCCOC1=C(C)C(=O)c2ccccc2C1=O`, the IC50 in assay [3] came to 140 µM.
`CC1=C(SC(C)C(C)O)C(=O)c2ccccc2C1=O` (stereo not drawn): the IC50 with MKN-45 was 5.64 µM; with MCF7, above 10 µM; in the assay with WI-38 it was above 10 µM; in the assay with SW480 it was 5.53 µM; in assay [1], above 10 µM; with Detroit 551 [4], above 10 µM. Besides, the IC50 with NPC-TW-039, with HepG2, in the assay on MES-SA and in the assay on A549 was above 10 µM throughout.
As for `CCCSC1=C(C)C(=O)c2ccccc2C1=O`, the IC50 in assay [3] is 14 µM.
For `CCCCSC1=C(C)C(=O)c2ccccc2C1=O`, in assay [3], the IC50 came to 15 µM.
On to `CC1=C(SCC(C)O)C(=O)c2ccccc2C1=O` (racemic), for which the IC50 was 3.92 µM with MKN-45; 4.61 µM in the assay with MCF7; 5.06 µM with WI-38; 5.19 µM with SW480; 5.1 µM in [1]; above 10 µM in the assay with NPC-TW-039. Further, the IC50 was found to be 4.61 µM in the assay with Detroit 551 [2], 5.59 µM in the assay on HepG2, 7.11 µM in the assay on MES-SA and 4.74 µM in the assay with A549.
On to `CC1=CC(=O)c2ccccc2C1=O` [MENADIONE], for which the IC50 in assay [3] was found to be 10 µM.
